Entries after “also recorded” stand apart in the source; their conditions may differ. Values belong to the compound of their own block, whether it stands above or below them.
Columns and labels:
rat mGlu7 = rat mGlu7 (Rattus norvegicus, UniProt P35400); assay type: cell-based
[1] = Predicted hepatic clearance; assay type: in vitro ADME; conditions: for rat CLhep: Table 1, predicted hepatic clearance; for Rat CLhep: Table 2, predicted hepatic clearance
[2] = Predicted hepatic clearance; assay type: in vitro ADME
Rat plasma:brain level = assay type: in vivo; conditions: rat PBL IV cassette
[3] = Discrete iv and po pharmacokinetics in rat; assay type: in vivo; conditions: plasma, 0.2 mg/kg
mGlu1–6,8 = assay: Selectivity versus the other seven mGlu receptors; assay type: cell-based
5-HT2B receptor = 5-HT2B receptor (Homo sapiens, UniProt P41595); assay: Eurofins lead profiling panel of 68 GPCRs, ion channels, and transporters; assay type: binding; conditions: at 10 μM; only target of 68 above 50%
Chain of 5-HT2B receptor (P41595 whole entry): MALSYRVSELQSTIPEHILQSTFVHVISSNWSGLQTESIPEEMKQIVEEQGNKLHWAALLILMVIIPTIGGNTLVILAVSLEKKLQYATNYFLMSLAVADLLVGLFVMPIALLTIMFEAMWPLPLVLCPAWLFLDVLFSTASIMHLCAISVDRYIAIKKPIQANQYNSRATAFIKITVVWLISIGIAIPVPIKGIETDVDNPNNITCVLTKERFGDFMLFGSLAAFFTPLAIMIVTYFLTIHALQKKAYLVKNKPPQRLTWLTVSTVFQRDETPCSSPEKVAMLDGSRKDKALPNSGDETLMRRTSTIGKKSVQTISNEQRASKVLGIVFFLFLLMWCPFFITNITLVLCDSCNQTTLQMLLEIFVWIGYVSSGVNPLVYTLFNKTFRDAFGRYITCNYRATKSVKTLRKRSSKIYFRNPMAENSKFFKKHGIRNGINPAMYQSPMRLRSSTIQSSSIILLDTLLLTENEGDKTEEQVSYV

30 mg/kg = assay type: in vivo, rat
mice [4] = assay: Elevated zero maze; assay type: in vivo, mouse
mice [5] = assay: Light/dark box assay; assay type: in vivo, mouse; conditions: vs vehicle
mice [6] = assay: Mouse marble-burying assay; assay type: in vivo; conditions: vs vehicle
[7] = system: hippocampus (native tissues); conditions: cited from earlier work

Chain of rat mGlu7 (P35400 35-915): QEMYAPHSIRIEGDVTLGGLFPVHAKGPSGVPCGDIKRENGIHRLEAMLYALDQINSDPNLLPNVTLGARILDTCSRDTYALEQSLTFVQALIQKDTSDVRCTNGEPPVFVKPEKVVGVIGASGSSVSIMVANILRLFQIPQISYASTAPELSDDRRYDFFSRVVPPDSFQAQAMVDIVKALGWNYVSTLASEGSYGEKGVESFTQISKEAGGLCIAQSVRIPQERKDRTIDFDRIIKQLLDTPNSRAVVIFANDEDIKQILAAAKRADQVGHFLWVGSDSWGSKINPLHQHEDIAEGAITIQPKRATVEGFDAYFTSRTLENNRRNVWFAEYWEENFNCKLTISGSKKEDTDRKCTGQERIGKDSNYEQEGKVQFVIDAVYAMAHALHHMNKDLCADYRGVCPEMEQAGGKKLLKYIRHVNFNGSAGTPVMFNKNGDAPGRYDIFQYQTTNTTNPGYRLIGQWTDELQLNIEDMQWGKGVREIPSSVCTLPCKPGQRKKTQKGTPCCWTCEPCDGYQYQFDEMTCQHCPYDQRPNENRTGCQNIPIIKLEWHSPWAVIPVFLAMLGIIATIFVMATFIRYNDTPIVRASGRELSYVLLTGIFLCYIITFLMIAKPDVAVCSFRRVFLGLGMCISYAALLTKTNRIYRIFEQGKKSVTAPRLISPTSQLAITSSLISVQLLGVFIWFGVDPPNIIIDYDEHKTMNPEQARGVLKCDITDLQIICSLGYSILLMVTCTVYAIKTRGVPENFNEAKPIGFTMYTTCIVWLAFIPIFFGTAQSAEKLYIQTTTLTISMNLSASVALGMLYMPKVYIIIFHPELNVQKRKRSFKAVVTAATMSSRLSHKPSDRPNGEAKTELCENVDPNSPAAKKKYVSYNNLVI

SMILES: COc1ccc(CNc2cc(OC(F)(F)F)ccc2-n2cncn2)cc1OC [6a]
- % L-AP4 min (rat mGlu7): 17 ± 3%

SMILES: COc1ccc(CCCNc2cc(OC(F)(F)F)ccc2-n2cncn2)cc1OC [6b]
- rat CLhep [1]: 68.1 mL/min/kg

SMILES: COc1cc(F)c(CCCNc2cc(OC(F)(F)F)ccc2-n2cncn2)cc1OC [6c]
- rat CLhep [1]: 66.4 mL/min/kg

SMILES: COc1cc(F)c(OCCNc2cc(OC(F)(F)F)ccc2-n2cncn2)cc1OC [6d]
- rat CLhep [1]: 66.4 mL/min/kg

SMILES: COc1ccc(C(=O)Nc2cc(OC(F)(F)F)ccc2-n2cncn2)cc1OC [compound 5]
- blocking high-frequency-stimulated LTP in the hippocampus [7]: robust efficacy

SMILES: CNCCC(Oc1ccc(C(F)(F)F)cc1)c1ccccc1 (centres unmarked) [fluoxetine, reference compound]
- total time spent in the light side of the chamber (mice [5]; 15 mg/kg ip): increased total time spent in the light side of the chamber
- number of marbles buried (mice [6]; fluoxetine 15 mg/kg): decreased the number of marbles buried

Second part, led by results:

- mGlu7 NAM activity (in words) (rat mGlu7): inactive
SMILES: COc1cc(C(=O)Nc2cc(OC(F)(F)F)ccc2-n2cncn2)ccc1OCC(F)(F)F [7a]

- mGlu7 NAM activity (in words) (rat mGlu7): inactive
SMILES: COc1cc(C(=O)Nc2cc(OC(F)(F)F)ccc2-n2cncn2)ccc1OCC(C)(C)C [7b]

- mGlu7 NAM activity (in words) (rat mGlu7): restored mGlu7 NAM activity
- Rat CLhep [1]: 38.4 mL/min/kg
SMILES: COc1cc(C(=O)Nc2cc(OC(F)(F)F)ccc2-n2cncn2)ccc1OCC(C)C [7c]

- predicted hepatic clearance, rat CLhep [1]: 15.9 mL min^–1 kg^–1
- Rat CLhep [1]: 15.9 mL/min/kg
- predicted hepatic clearance in mouse, CLhep [2]: 44.0 mL min^–1 kg^–1
- [brain]tot (Rat plasma:brain level): 375 nM
- clearance at 24 h [3]: 31.5 mL/min/kg
- compound activity at 5-HT2B receptor (5-HT2B receptor): greater than 50%
- predicted unbound levels (CSF concentrations) above the in vitro IC50 (30 mg/kg; at modest doses): ~ 4 fold
- [brain]tot (30 mg/kg; rat, 30 mg/kg ip): 745 nM
- [plasma]tot (30 mg/kg; rat, 30 mg/kg ip): 598 nM
- levels in CSF (30 mg/kg; rat, 30 mg/kg ip): 1300 nM
SMILES: COc1cc(C(=O)Nc2cc(OC(F)(F)F)ccc2-n2cncn2)ccc1OCC1CC1 [7d, N-(2-(1H-1,2,4-Triazol-1-yl)-5-(trifluoromethoxy)phenyl)-4-(cyclopropylmethoxy)-3-methoxybenzamide]
- activity versus mGlu1–6,8 (mGlu1–6,8): > 10 µM
- time spent in the open arms (mice [4]; 3 mg/kg ip, vs VEH p < 0.05, 3 mg/kg): increased total time spent in the open arms; also recorded: increases time spent in the open arms
- overall locomotion / distance traveled (mice [4]; 10 mg/kg ip, 10 mg/kg): decrease in overall locomotion; also recorded: decreased distance traveled
- total time spent in the light side of the chamber (mice [5]; 3 mg/kg ip): increased total time spent in the light side of the chamber
- number of marbles buried (mice [6]; 3 mg/kg, 3 mg/kg): decreased the number of marbles buried; also recorded: reduced the number of marbles buried

From publication PMC6501583 (Journal of medicinal chemistry, 2019)
